For this test, the system named is ME-1 and MOLM-14 cells. Put plainly: CPX-351 uptake after quizartinib pretreatment. Format: cell-based. How it is done:
Uptake of CPX-351 was measured by daunorubicin fluorescence as determined by flow cytometry normalized to untreated control. The x-axis in the graphs depicts the uptake of CPX-351 in standard units of fluorescence and the y-axis represents the normalized cell counts. […] It is clear from FIGS. 9A and 9B that as the pretreatment time is extended, the ability of some of the cells to take up CPX-351 is diminished. The results in FIGS. 9C and 9D are composites of the various timepoints up to 24 hours.

Molecules are shown by their SMILES.

For the compound `CC(C)(C)c1cc(NC(=O)Nc2ccc(-c3cn4c(n3)sc3cc(OCCN5CCOCC5)ccc34)cc2)no1` [quizartinib], the “ability of cells to take up CPX-351 as quizartinib pretreatment time is extended” value (10 nM quizartinib for 0, 2, 8, 16 and 24 hours, then CPX-351 for 2 hours) is listed as “diminished”. In addition, the “total population of cells exhibiting decreased daunorubicin fluorescence” value (pretreatment with quizartinib for 16 hours) is reported as “approximately 50%”.

The values above are taken from patent US10927418B2, “Assays and methods for selecting a treatment regimen for a subject with leukemia” (CELATOR PHARMACEUTICALS, INC., priority 2015, dated 2021).
